{
  "source": "patent US11439603B2",
  "about": "“Compositions for ameliorating, preventing or treating somnipathy including phloroglucinol as active ingredient and compositions for suppressing intolerance to or alleviating side effects of agonist at benzodiazepine binding site of GABA-A receptor including phloroglucinol as active ingredient” (KOREA FOOD RESEARCH INSTITUTE, priority 2017, dated 2022)",
  "key": {"C57BL/6N mice [1]": {"system": "C57BL/6N mice", "test": "Sleep architecture (EEG) during long-term administration for 21 days and 2-day withdrawal", "assay_type": "in vivo", "experimental": "Experimental animals were prepared and their sleep architecture was analyzed in the same manner as in Experimental Example 1. As in the single administration in Experimental Example 1, the mice were allowed to recover for 7 days after surgery and acclimated for 4 days. Thereafter, baselines (BL) were measured on day 0 after acclimation and a sample was administered orally to each animal for 21 days. EEGs were recorded on days 1, 7, 14, and 21. EEGs were recorded and analyzed during the subsequent 2-day withdrawal. FIG. 8 is a flow diagram of an experiment for sleep architecture analysis during long-term administration.\nEEGs were recorded for the mice on days 0, 1, 7, 14, and 21 during long-term administration of each sample for 3 weeks. The recorded EEGs were analyzed."}, "C57BL/6N mice [2]": {"system": "C57BL/6N mice", "test": "Sleep architecture analysis (EEG/EMG) after single administration", "assay_type": "in vivo", "settings": "for NREM sleep / REM sleep: EEG recorded for 2 h after oral administration", "experimental": "C57BL/6N mice (28-30 g, 12-week old male) were received from Koatech Co. Ltd. (Pyeongtaek, Gyeonggi-do, Korea) and acclimated to the vivarium for a period of one week before testing was conducted. The animals were housed at a temperature of 23±1° C., a humidity of 55±5%, and a light intensity of 3000 Lux under a 12 h light-dark cycle (light on from 07:00 to 19:00). The animals had ad libitum access to food and water. All animals were maintained in accordance with the guidelines for the Institutional Animal Care and Use Committee of the Korea Food Research Institute (KFRI-IACUC).\nC57BL/6N mice were acclimated for a period of one week and received electrode implantation for electroencephalogram (EEG) and electromyogram (EMG) recordings. Each mouse was anesthetized with pentobarbital (50 mg/kg, i.p.) and its head was fixed in a stereotaxic instrument. After the subcutaneous connective tissue of the head was incised, an EEG/EMG headmount (Pinnacle Technology Inc., Lawrence, Kans., USA) was implanted for EEG and EMG recordings, fixed with dental cement, and closed with sutures. The surgical site was sterilized and an antibiotic was administered for 3 days to prevent possible inflammation after surgery. The animal was allowed to recover for 7 days. For adaptation to the recording conditions, 0.5% CMC-saline solution used as a control was administered orally from 4 days before measurement. Thereafter, the recording instrument was connected to induce acclimation of the animal to this experimental procedure.\nAfter oral administration of a sample, the animal was stabilized for 5 min. Then, EEG and EMG were recorded using PAL-8200 series (Pinnacle Technology Inc., Lawrence, Kans., USA) for 24 h from 17:00. The sampling rate for EEG and EMG recordings was set to 200 Hz (epoch time: 10 s). The filtering range was set to 0.1-25 Hz for EEG data recording and 10-100 Hz for EMG data recording.\nSleep architecture analysis was conducted according to the fast Fourier transform (FFT) algorithm using the SleepSign program (Ver. 3.0, Kissei Comtec Inc., Matsumoto, Nagono, Japan).\nThe results were divided into three stages: Wake, REMS (rapid eye movement sleep, theta band: 6-10 Hz) and NREMS (non-rapid eye movement sleep, delta band: 0.5-4 Hz). Sleep latency was defined as the time required for NREM sleep with 10 s epoch to occur consecutively at least 12 times (Blanco-Centurion et al., 2006). The values in the 0.5-4 Hz range were averaged and the delta power during NREM sleep was expressed in percent relative to the control.\nAll animal experimental data were expressed as mean±standard deviation."}, "[3]": {"system": "GABAA-benzodiazepine receptor", "test": "Mechanism of action for sleep enhancement: flumazenil given 15 min before oral sample, EEG/EMG", "assay_type": "in vivo, mice", "experimental": "To investigate the mechanism of action for sleep enhancement, flumazenil, an antagonist of the GABAA-benzodiazepine receptor, was administered 15 min before oral administration of phloroglucinol and EEG and EMG were recorded by the same method as described in Experimental Example 1.\nIn this example, zolpidem was used as a positive control."}, "[4]": {"settings": "administered alone at doses of 25 to 50 mg/kg; cited from earlier work"}, "GABAA-benzodiazepine": {"system": "GABAA-benzodiazepine", "settings": "compared with other phlorotannins and diazepams; cited from earlier work"}, "[5]": {"settings": "oral once daily for 3 weeks, phloroglucinol 100 mg/kg, zolpidem 5 mg/kg"}, "[6]": {"settings": "oral once daily for 3 weeks, phloroglucinol 100 mg/kg, zolpidem 5 mg/kg, or both"}},
  "data": [
    {"smiles": "Cc1ccc(-c2nc3ccc(C)cn3c2CC(=O)N(C)C)cc1", "note": "[zolpidem, N,N,6-trimethyl-2-p-tolylimidazo[1,2-a]pyridine-3-acetamide L-(+)-tartrate (2:1)]", "values": [
      {"measurement": "time for which NREM sleep duration was significantly increased compared to baseline", "setting": "C57BL/6N mice [1]; day 1, zolpidem 5 mg/kg alone or with phloroglucinol 100 mg/kg", "value": 3, "unit": "h"},
      {"measurement": "time for which NREM sleep duration was significantly increased compared to baseline", "setting": "C57BL/6N mice [1]; day 21, zolpidem 5 mg/kg alone", "value": 1, "unit": "h"},
      {"measurement": "delta activity compared to baseline", "setting": "C57BL/6N mice [1]; days 1, 7, and 14 of long-term administration, zolpidem 5 mg/kg, p<0.01", "value": "significant reductions"},
      {"measurement": "NREM sleep duration compared to baseline (BL)", "setting": "C57BL/6N mice [1]; [5]", "value": "significant increase"},
      {"measurement": "intolerance on long-term administration", "setting": "C57BL/6N mice [1]; [5]", "value": "demonstrating intolerance"},
      {"measurement": "sleep latency compared to baseline (BL)", "setting": "C57BL/6N mice [1]; [5]", "value": "significant reduction"},
      {"measurement": "NREM sleep duration with increasing administration period (third week / day 21 versus first day)", "setting": "C57BL/6N mice [1]; [6]", "value": "significant difference"},
      {"measurement": "sleep latency with increasing administration period (third week / days 7, 14, 21 versus first day)", "setting": "C57BL/6N mice [1]; [6]", "value": "significant difference"},
      {"measurement": "residual sedation", "setting": "C57BL/6N mice [2]; 5 mg/kg", "value": "slight residual sedation"},
      {"measurement": "time after administration for which NREM sleep was significantly increased", "setting": "C57BL/6N mice [2]; 5 mg/kg", "value": 3, "unit": "h"},
      {"measurement": "time after administration for which vigilance was significantly reduced", "setting": "C57BL/6N mice [2]; 5 mg/kg", "value": "up to 9 h"},
      {"measurement": "NREM sleep at 14 h after administration (residual sedative effect)", "setting": "C57BL/6N mice [2]; 10 mg/kg alone", "value": "significantly increased"},
      {"measurement": "time after administration for which the sleep-enhancing effect lasted", "setting": "C57BL/6N mice [2]; 10 mg/kg alone", "value": 4, "unit": "h"},
      {"measurement": "increase of NREM sleep duration", "setting": "C57BL/6N mice [2]; 10 mg/kg, 2 h after oral administration, p<0.01", "value": 74.6, "unit": "%"},
      {"measurement": "NREM sleep", "setting": "C57BL/6N mice [2]", "value": "increased NREM sleep in a concentration-dependent manner"},
      {"measurement": "REM sleep", "setting": "C57BL/6N mice [2]", "value": "without affecting REM sleep"},
      {"measurement": "delta activity in the range of 0.5-4 Hz during NREM sleep", "setting": "C57BL/6N mice [2]; oral 5 mg/kg, p<0.01", "value": "significantly reduce"},
      {"measurement": "delta activity in the range of 0.5-4 Hz during NREM sleep", "setting": "C57BL/6N mice [2]; oral 10 mg/kg, p<0.01", "value": "significantly reduce"},
      {"measurement": "reduction of sleep latency", "setting": "C57BL/6N mice [2]; single administration of zolpidem 10 mg/kg", "value": "~44", "unit": "min"},
      {"measurement": "sleep latency compared to negative control (vehicle)", "setting": "C57BL/6N mice [2]; single administration, 5 and 10 mg/kg", "value": "significantly reduced"},
      {"measurement": "sleep-enhancing effect with flumazenil", "setting": "[3]; flumazenil administered before sample, positive control", "value": "completely blocked"}
    ]},
    {"smiles": "CN1C(=O)CN=C(c2ccccc2)c2cc(Cl)ccc21", "note": "[diazepam]", "values": [
      {"measurement": "delta activity in the range of 0.5-4 Hz", "setting": "C57BL/6N mice [2]; 5 mg/kg diazepam (data not shown)", "value": "significantly reduced"}
    ]},
    {"smiles": "Oc1cc(O)cc(O)c1", "note": "[phloroglucinol]", "values": [
      {"measurement": "sleep duration", "setting": "[4]", "value": "increasing sleep duration"},
      {"measurement": "sleep latency", "setting": "[4]", "value": "effective in reducing sleep latency"},
      {"measurement": "IC50", "setting": "GABAA-benzodiazepine", "value": "much lower"},
      {"measurement": "binding affinity (Ki)", "setting": "GABAA-benzodiazepine", "value": "much lower"},
      {"measurement": "NREM sleep duration compared to baseline (BL)", "setting": "C57BL/6N mice [1]; [5]", "value": "increase"},
      {"measurement": "intolerance on long-term administration", "setting": "C57BL/6N mice [1]; [5]", "value": "no intolerance"},
      {"measurement": "sleep latency compared to baseline (BL)", "setting": "C57BL/6N mice [1]; [5]", "value": "significant reduction"},
      {"measurement": "persistence of NREM sleep-enhancing effect from day 1 to day 21", "setting": "C57BL/6N mice [1]; phloroglucinol 100 mg/kg alone or with zolpidem 5 mg/kg, once daily", "value": "lasted similarly from day 1 to day 21"},
      {"measurement": "NREM sleep", "setting": "C57BL/6N mice [2]", "value": "increased NREM sleep in a concentration-dependent manner"},
      {"measurement": "REM sleep", "setting": "C57BL/6N mice [2]", "value": "without affecting REM sleep"},
      {"measurement": "delta activity during NREM sleep", "setting": "C57BL/6N mice [2]; oral, up to 150 mg/kg alone", "value": "no significant change"},
      {"measurement": "time after administration for which NREM sleep was significantly increased", "setting": "C57BL/6N mice [2]; single administration 150 mg/kg", "value": 2, "unit": "h"},
      {"measurement": "sleep latency compared to negative control (vehicle)", "setting": "C57BL/6N mice [2]; single oral administration, all concentrations (50, 100 and 150 mg/kg)", "value": "significantly reduced"},
      {"measurement": "amount of NREM sleep", "setting": "[3]; treated with flumazenil 15 min before oral administration", "value": "level similar to that of a negative control"},
      {"measurement": "NREM sleep", "setting": "[3]; untreated with flumazenil", "value": "increased NREM sleep"}
    ]}
  ]
}
